Experimental data as given in BindingDB's records for patent US20240279215 (Cytokinetics, Incorporated, 2024).

biological target: Nicotinamide phosphoribosyltransferase (Homo sapiens, UniProt P43490); assay: NMN Fluorescence Biochemical Assay
Protocol: Compounds described herein were assayed for their ability to stimulate the synthesis of nicotinamide mononucleotide (NMN) by the enzyme NAMPT. The human recombinant enzyme assay measures the activation of the enzyme activity by compounds using recombinant enzyme and substrates in a buffered cell-free system. The assay conditions closely mimic cellular environments. Dose responses were measured using an assay to detect the formation of nicotinamide mono-nucleotide. All experiments were performed in the 384-well format. Generally, 0.5 μL of DMSO containing varying concentrations of the test compound was mixed with 10 μL of the enzyme reagent solution. Enzyme reactions were initiated with the addition of […] containing the substrates. The final assay conditions were as follows: 6 nM human NAMPT, 2.5 mM ATP, 20 μM PRPP and 150 μM nicotinamide in 50 mM HEPES, pH 7.2, 1 mM DTT, 1 mM CHAPS 50 mM NaCl, 100 mM MgCl2. Following an incubation of 60 min at ambient temperature, 10 μL of 20% acetophenone in DMSO was added, followed by 10 μL of 2 M KOH and 40 μL of formic acid. The plates were read for fluorescence (Excitation/Emission=355 nm/460 nm) using an EnVision plate reader after 40 mins of incubation at ambient temperature.

Sequence of Nicotinamide phosphoribosyltransferase (P43490 whole entry): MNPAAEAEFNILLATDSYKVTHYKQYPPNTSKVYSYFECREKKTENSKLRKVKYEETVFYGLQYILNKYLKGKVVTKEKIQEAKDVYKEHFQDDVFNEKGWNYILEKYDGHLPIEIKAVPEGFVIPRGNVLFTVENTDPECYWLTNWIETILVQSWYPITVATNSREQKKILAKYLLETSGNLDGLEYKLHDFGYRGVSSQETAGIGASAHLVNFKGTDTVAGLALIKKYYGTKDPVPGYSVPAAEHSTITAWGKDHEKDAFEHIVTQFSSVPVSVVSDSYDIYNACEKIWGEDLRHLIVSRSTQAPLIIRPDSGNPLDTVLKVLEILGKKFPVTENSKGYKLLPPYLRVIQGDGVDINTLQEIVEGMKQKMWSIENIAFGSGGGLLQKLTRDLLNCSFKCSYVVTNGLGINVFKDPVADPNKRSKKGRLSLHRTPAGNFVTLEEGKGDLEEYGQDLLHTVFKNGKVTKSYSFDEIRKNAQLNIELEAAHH

EC50 [µM]	Compound
7.94	CN(Cc1ccccc1)S(=O)(=O)c1ccc(NC(=O)OCc2ccc(Cl)cc2)cc1 [US20240279215, Compound 335]
15.8	O=C(Nc1ccc(CN2C(=O)CC[C@@H]2c2cccnc2)cc1)OCc1ccc(Cl)cc1 [US20240279215, Compound 249]
11.5	CN(C1CCOC1)S(=O)(=O)c1ccc(NC(=O)OCc2ccc(Cl)cc2)cc1 (centres undefined) [US20240279215, Compound 342]
5.38	O=C(Nc1ccc(CC2CCN(CC(F)F)CC2)cc1)OCc1ccncc1 [US20240279215, Compound 52]
